Structures are written as SMILES.

The nature of data set [1]: Solubility in PGMEA. In kind it is physicochemical. Particulars: for Solubility in PGMEA: solvent PGMEA (propylene glycol monomethyl ether acetate).
Data set [2] is described as follows: Thermal stability of films (chromaticity): ΔE before and after hard baking. In kind it is physicochemical. Particulars: for ΔEab after baking at 230° C. for 1 h: dye in alkaline soluble acrylic resin film on glass, hard baked at 230° C. under air for 1 h, CIE Lab, D65/10. How it is done: 1.15 g of alkaline soluble acrylic resin solution (MIPHOTO RPR4022, supplied from Miwan Commercial Co., Ltd., 40 wt % of solid content in methyl 3-methoxypropionate) was mixed with 1.73 g of PGMEA (60 wt %). 0.189 g of Dye 1 was mixed in the alkaline soluble resin/PGMEA solution and stirred for 2 hours at room temperature using a shaker. The solution was filtered through a 0.45 μm PTFE filter to remove large particles. Then the filtered solution was spin coated onto a clean glass substrate with 400 rpm spin speed for 18 seconds. The obtained film was first dried at 90° C. under air atmosphere for 30 minutes, and then hard baked at 230° C. under air atmosphere for 1 hour. The CIE values (xyY values and lab values) and the transmittance were measured before and after the hard bake.
(4) Thermal Stability of Films (Chromaticity):
The wet film after spin coating is dried in oven at 90° C. for 30 minutes and then soft baked at 150° C. for 15 minutes. The chromaticity coordinates (L, a, b) are recorded with UltraScan Pro (Hunterlab) colorimeter. D65/10 light source is used and results are based on CIE Lab coordinates. After that the film is hard baked at target temperature (230° C.) for 1 hour and the new chromaticity coordinates (L′, a′, b′) are recorded with the method above. The thermal stability of a film is indicated by the difference of chromaticity coordinate before and after hard baking represented by the following formula;
ΔE=√{square root over ((L−L′)^2+(a−a′)^2+(b−b′)^2)}

The mark [3] stands for this setting: comparison in words, referring to Table 1.

For `Cc1cc(C)c(Nc2ccc(Nc3c(C)cc(O)cc3C)c3c2C(=O)c2ccccc2C3=O)c(C)c1` [(1-((4-hydroxy-2,6-dimethylphenyl)amino)-4-(mesitylamino)-anthraquinone], the “Solubility in PGMEA” value in data set [1] amounted to 3.0 wt %. In data set [2], the “ΔEab after baking at 230° C. for 1 h” value worked out at 6.8.
In the case of `C=CCN(CC=C)C(=O)COc1cc(C)c(Nc2ccc(Nc3c(C)cc(C)cc3C)c3c2C(=O)c2ccccc2C3=O)c(C)c1` [Dye 1, N,N-diallyl-acetamide modified anthraquinone], the “solubility in PEGMEA compared with the Comparative Examples” value in data set [1] (setting [3]) is on record as “significant improvement”. In addition, the “Solubility in PGMEA” value in data set [1] amounted to 6.2 wt %. The “thermal stability compared with the Comparative Examples” value in data set [2] (setting [3]) is “significant improvement”. For the same molecule, the “ΔEab after baking at 230° C. for 1 h” value in data set [2] was 2.1.
For `CC(C)Nc1ccc(NC(C)C)c2c1C(=O)c1ccccc1C2=O` [Solvent Blue 36], in data set [1], the “Solubility in PGMEA” value turned out to be 1.9 wt %. In addition, the “ΔEab after baking at 230° C. for 1 h” value in data set [2] is listed as 33 (color almost.
With `Cc1cc(C)c(Nc2ccc(Nc3c(C)cc(C)cc3C)c3c2C(=O)c2ccccc2C3=O)c(C)c1` [Solvent Blue 104, 1,4-bis(mesitylamino)anthraquinone], the “Solubility in PGMEA” value in data set [1] is 0.6 wt %. Further, in data set [2], the “ΔEab after baking at 230° C. for 1 h” value was determined as 7.9.

Values taken from patent US20170137625A1, “ANTHRAQUINONE COMPOUND USED FOR COLOR FILTER OF LCD” (Dow Global Technologies LLC, priority 2014, published 2017).
